{"source": "patent US4582821A", "about": "“Inhibition of cyclic nucleotide independent protein kinases” (E. I. Du Pont de Nemours and Company, priority 1983, dated 1986)", "key": {"[1]": {"biological_target": "T1, A-431 cell EGF receptor (Homo sapiens, UniProt P00533)", "T1 construct": "intact A-431 cell membranes were employed, rather than solubilized extracts; endogenous in cells; host or cells: A-431 human epidermoid carcinoma cells (plasma membranes)", "T1 sequence (P00533 25-1210)": "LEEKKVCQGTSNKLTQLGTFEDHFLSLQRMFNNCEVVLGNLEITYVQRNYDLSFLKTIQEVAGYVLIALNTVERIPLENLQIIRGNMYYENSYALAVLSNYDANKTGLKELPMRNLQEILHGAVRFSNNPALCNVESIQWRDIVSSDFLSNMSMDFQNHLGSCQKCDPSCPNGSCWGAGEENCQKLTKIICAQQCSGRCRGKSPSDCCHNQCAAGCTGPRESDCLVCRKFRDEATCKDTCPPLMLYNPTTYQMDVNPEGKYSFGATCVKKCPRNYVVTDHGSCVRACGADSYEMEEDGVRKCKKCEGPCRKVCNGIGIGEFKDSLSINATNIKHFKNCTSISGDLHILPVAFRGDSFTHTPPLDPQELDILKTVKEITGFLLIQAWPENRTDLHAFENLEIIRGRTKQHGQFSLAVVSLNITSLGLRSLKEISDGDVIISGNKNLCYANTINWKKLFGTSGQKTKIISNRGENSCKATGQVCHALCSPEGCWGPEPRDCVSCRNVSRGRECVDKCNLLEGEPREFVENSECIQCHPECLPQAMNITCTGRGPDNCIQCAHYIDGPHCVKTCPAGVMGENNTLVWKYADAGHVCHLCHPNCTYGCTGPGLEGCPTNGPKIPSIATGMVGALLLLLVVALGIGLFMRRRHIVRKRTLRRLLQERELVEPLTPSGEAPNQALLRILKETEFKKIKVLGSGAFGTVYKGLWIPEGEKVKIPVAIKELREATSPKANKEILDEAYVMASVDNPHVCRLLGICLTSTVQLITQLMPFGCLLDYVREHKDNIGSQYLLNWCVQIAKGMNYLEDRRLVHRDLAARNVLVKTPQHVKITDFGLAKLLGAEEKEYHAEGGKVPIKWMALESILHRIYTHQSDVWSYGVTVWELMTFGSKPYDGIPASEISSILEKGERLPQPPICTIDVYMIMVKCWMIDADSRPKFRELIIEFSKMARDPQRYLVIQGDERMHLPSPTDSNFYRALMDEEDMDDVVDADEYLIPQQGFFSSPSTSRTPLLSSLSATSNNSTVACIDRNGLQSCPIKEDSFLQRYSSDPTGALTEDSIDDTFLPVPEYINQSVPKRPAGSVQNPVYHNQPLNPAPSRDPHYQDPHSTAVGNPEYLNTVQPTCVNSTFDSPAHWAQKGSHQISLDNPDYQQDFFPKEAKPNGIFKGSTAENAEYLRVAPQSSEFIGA", "assay": "Protein phosphorylation of A-431 cell membrane EGF receptors (intact membranes, EGF present)", "assay_type": "biochemical", "conditions": "600 nmoles/mg protein, intact A-431 membranes", "how_it_was_run": "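Intact A-431 membranes with 1 mM ouabain, 20 mM Hepes pH 7.4, 1 mM MnCl2 and 100 ng EGF, preincubated with peptide halomethyl ketones (ethanol vehicle) ~23° for 10 min, then 10 min at 0°. Phosphorylation started with 15 μM [γ-32P]ATP, run 6 min at 0°; TCA-precipitated radioactivity counted by scintillation.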"}, "[2]": {"test_system": "EGF-mediated tyrosine phosphorylation in Triton extracts of A-431 cell membranes", "assay": "Phosphoamino acid analysis of labeled Triton extracts of A-431 cell membranes", "assay_type": "biochemical, human", "conditions": "for Total Phosphoprotein / P-serine radioactivity / P-threonine radioactivity / P-tyrosine radioactivity: 349 nmoles/mg protein; for Total Phosphoprotein: 1/7 aliquot", "experimental": "Triton extracts of A-431 cell membranes, prepared substantially as described previously, containing 37.5 μg protein, were labeled with [γ-^32 P] ATP (5 μM, 5 μCi) for 3 minutes at 0° in the presence and absence of Boc-LeuCH2 Br (349 nmoles/mg protein). Protein samples were hydrolyzed and phosphoamino acids were separated by the following procedure.\nAfter labeling, membrane proteins were treated with 10% trichloroacetic acid (TCA) containing 10 mM sodium pyrophosphate and 100 μg BSA. After incubation for one hour at 0°, the foregoing mixture was centrifuged at 3,000 rpm and the resulting pellet washed 3 times with 10% TCA/10 mM sodium pyrophosphate. After recentrifugation, the final pellet was washed with ethanol, dried under vacuum, and dissolved in 70 μL of 0.1N NaOH prior to transfer to glass test tubes containing 0.5 mL 6N hydrochloric acid. The tubes were sealed under vacuum and samples were hydrolyzed at 100° for one hour. The resulting hydrolysates were lyophilized, resuspended in 30 μL water and electrophoresed on Whatman 3MM paper for 3 hours at 3,000 V, at pH 3.5 in 5% acetic acid/0.5% pyridine. Phosphotyrosine, phosphoserine, and phosphothreonine (10 μg of each) were employed as markers. Following electrophoresis, spots corresponding to the foregoing phosphoamino acids were located by ninhydrin treatment, excised, and bleached with 6% hydrogen peroxide. Radioactivity of the spots was determined by scintillation counting and expressed as cpm. Total phosphoprotein of a 1/7 aliquot of each reaction mixture was determined as previously described."}, "[3]": {"biological_target": "T2, p130^fps (UniProt P00530+P03323)", "T2 construct": "anti-gag serum and Staphylococcus protein A suspension (for FSV-transformed cells); viral gag-derived N-terminal portion (natural gag-fps fusion); expressed in transfected cells; immune complex with anti-gag serum and Staphylococcus protein A", "assay": "Immune complex phosphorylation by p130fps immunoprecipitates of FSV-transformed cells", "assay_type": "biochemical, Fujinami sarcoma virus (FSV)", "conditions": "for Activity (cpm), FSV: anti-gag immunoprecipitates, no inhibitor 27036; for Activity (cpm), Control: extracts immunoprecipitated with normal serum, no inhibitor 2624", "experimental": "In this experiment, Boc-LeuCH2 Br was tested as an inhibitor of pp60^src and p130^fps, the tyrosine-specific protein kinases encoded by the transforming genes of RSV and Fujinami sarcoma virus, respectively.\nThese viral gene products were partially purified by preparation of immune complexes substantially according to the technique described by Collett et al., Proc. Nat. Acad. Sci. USA 75:2021 (1978). In this procedure, immunoprecipitates are prepared by incubation of extracts of virus-transformed cells with tumor-bearing rabbit serum (TBR) and Staphylococcus protein A suspension (for RSV-transformed cells) or anti-gag serum and Staphylococcus protein A suspension (for FSV-transformed cells).\nAssay mixtures contained, in a final volume of 70 μL, 100 μg of immune complex protein, 20 mM Hepes, pH 7.4, and 1 mM MnCl2. Phosphorylation was initiated by addition of 1 μM (4 μCi) [γ-^32 P] ATP. After 10 minutes at about 23°, reactions were terminated by pipetting 20 μL aliquots of assay mixture onto 2×2 cm squares of Whatman 3 MM filter paper, which were immediately suspended in 10% TCA/10 mM sodium pyrophosphate. […] Controls for the immunoprecipitation procedure were prepared by immunoprecipitating transformed cell extracts with normal serum. Values in parentheses represent specific phosphorylation induced by virus-transformed cells.\nIn a related experiment, the capacity of Boc-LeuCH2 Br to inhibit phosphorylation of casein by p130^fps was determined. These tests were conducted substantially as described above, except 1 mg/mL casein was added to assay mixtures as a substrate, and reactions were terminated by addition of 2.5 mM unlabeled ATP and immediate cooling to 0°. Phosphorylated casein was separated from immunoprecipitate suspensions by centrifugation at 3,000 xg for 3 minutes. The resulting pellets were resuspended in 70 μL of 10 mM Hepes, pH 7.5, and 20 μL aliquots were pipetted onto filter paper squares as previously described.\nThis experiment was conducted substantially according to the procedures described in Example 17, above. In Table 5, \"FSV\" refers to immunoprecipitates of FSV-transformed cell extracts prepared by addition of anti-gag serum; controls were extracts immunoprecipitated with normal serum."}}}
{"smiles": "CC(C)CC(NC(=O)OC(C)(C)C)C(=O)CBr", "note": "(stereo not drawn) [Boc-LeuCH2 Br]", "values": [{"measurement": "% inhibition", "setting": "[1]", "value": 29, "unit": "%"}, {"measurement": "Total Phosphoprotein", "setting": "[2]; EGF absent, control 3408", "value": 2024, "unit": "cpm"}, {"measurement": "P-serine radioactivity", "setting": "[2]; EGF absent, control 328", "value": 300, "unit": "cpm"}, {"measurement": "P-threonine radioactivity", "setting": "[2]; EGF absent, control 1100", "value": 1180, "unit": "cpm"}, {"measurement": "P-tyrosine radioactivity", "setting": "[2]; EGF absent, control 1152", "value": 488, "unit": "cpm"}, {"measurement": "Total Phosphoprotein", "setting": "[2]; EGF present, control 12204", "value": 5332, "unit": "cpm"}, {"measurement": "P-serine radioactivity", "setting": "[2]; EGF present, control 494", "value": 262, "unit": "cpm"}, {"measurement": "P-threonine radioactivity", "setting": "[2]; EGF present, control 1994", "value": 1270, "unit": "cpm"}, {"measurement": "P-tyrosine radioactivity", "setting": "[2]; EGF present, control 18000", "value": 5554, "unit": "cpm"}, {"measurement": "inhibition of tyrosine phosphorylation (in words)", "setting": "[2]; both the presence and absence of EGF", "value": "pronounced inhibition of tyrosine phosphorylation"}, {"measurement": "% inhibition", "setting": "[3]; 250 nmoles/mg protein", "value": 48, "unit": "%"}, {"measurement": "Activity (cpm), FSV", "setting": "[3]; 250 nmoles/mg protein", "value": 13932, "unit": "cpm"}, {"measurement": "Activity (cpm), Control", "setting": "[3]; 250 nmoles/mg protein", "value": 2370, "unit": "cpm"}, {"measurement": "% inhibition", "setting": "[3]; 500 nmoles/mg protein", "value": 69, "unit": "%"}, {"measurement": "Activity (cpm), FSV", "setting": "[3]; 500 nmoles/mg protein", "value": 8344, "unit": "cpm"}, {"measurement": "Activity (cpm), Control", "setting": "[3]; 500 nmoles/mg protein", "value": 2180, "unit": "cpm"}, {"measurement": "Immune Complex Phosphorylation, specific phosphorylation (in parentheses)", "setting": "[3]; p130fps + anti-gag serum, 250 nmoles per mg protein, no inhibitor 20104", "value": 6324, "unit": "cpm"}, {"measurement": "Immune Complex Phosphorylation", "setting": "[3]; p130fps + anti-gag serum, 250 nmoles per mg protein, no inhibitor 29244", "value": 15222, "unit": "cpm"}, {"measurement": "Immune Complex Phosphorylation", "setting": "[3]; p130fps + control serum, 250 nmoles per mg protein, no inhibitor 9140", "value": 8898, "unit": "cpm"}, {"measurement": "Immune Complex Phosphorylation", "setting": "[3]; related experiment with 1 mg/mL casein, p130fps + anti-gag serum, no inhibitor 7663", "value": 1656, "unit": "cpm"}, {"measurement": "Immune Complex Phosphorylation", "setting": "[3]; related experiment with 1 mg/mL casein, p130fps + control serum, no inhibitor 1184", "value": 1286, "unit": "cpm"}]}
